Measurements taken from patent publication US6528516B1, “Methods for reducing intraocular pressure using A3 adenosine receptor antagonists” (Trustees of the University of Pennsylvania, The Center for …, priority 1998, dated 2003).
Several values for one entry are separate records, joined by “and”; a condition that tells them apart may be missing. Equal values may be shown once.

System: HCE (human ciliary epithelial) cell line, NPE cells
Experiment: Cell volume (shrinkage) of NPE cells in isosmotic solution, Coulter Counter, 5 μM gramicidin
Format: cell-based
Summary of the method: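 HCE-derived NPE cells suspended in isosmotic bicarbonate/HEPES Ringer's (pH 7.4, 298-305 mOsm), with 5 μM gramicidin D in all solutions to remove K^+ channel contribution. Volume measured by Coulter Counter as peak of distribution, normalized to first time point; shrinkage fit to monoexponential by nonlinear least squares for v∞ and τ. Vehicle-matched controls.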

[1] = 30 nM IB-MECA, 5 μM gramicidin, FIG. 2A
[2] = FIG. 2D, 100 nM Cl-IB-MECA, IB-MECA in parallel

With `CNC(=O)[C@H]1O[C@@H](n2cnc3c(NCc4cccc(I)c4)ncnc32)[C@H](O)[C@@H]1O` [IB-MECA, N^6-(3-iodobenzyl)-adenosine-5′-N-methyluronamide] the “steady-state cell volume (V∞)” value [1] was 98.5±0.1%, the “time constant of the shrinkage (τ)” value [1] was 3.5 ± 1.5 min and the “effect of adenosine-receptor agonist on isoosmotic volume” value (100 nM agonist) was “produced shrinkage”. The “steady-state cell volume (V∞)” value (100 nM, FIG. 5A) was 95.6±0.2%, the “time constant of the shrinkage (τ)” value (100 nM, FIG. 5A) was 4.5 ± 0.6 min and the “steady-state cell volume (V∞)” value (1 μM IB-MECA, FIG. 2A) was 95.9±0.3%. For the same compound, the “time constant of the shrinkage (τ)” value (1 μM IB-MECA, FIG. 2A) was 2.4 ± 0.7 min, the “steady-state cell volume (V∞)” value (1 μM IB-MECA, FIG. 2B) was 97.5±0.1% and the “time constant of the shrinkage (τ)” value (1 μM IB-MECA, FIG. 2B) was 7.2 ± 1.0 min. For the same compound, the “steady-state cell volume (V∞)” value (3 μM IB-MECA, FIG. 2B) was 96.7±0.3%, the “time constant of the shrinkage (τ)” value (3 μM IB-MECA, FIG. 2B) was 10.0 ± 2.3 min and the “steady-state cell volume (V∞)” value (10 μM IB-MECA, FIG. 2B) was 97.9±0.2%. The “time constant of the shrinkage (τ)” value (10 μM IB-MECA, FIG. 2B) was 3.2 ± 1.1 min, the “steady-state cell volume (V∞)” value [2] was 96.8±0.4% and the “time constant of the shrinkage (τ)” value [2] was 6.3 ± 2.2 min. For the same compound, the Kd (Lineweaver-Burk plot of monoexponential fits, FIG. 2C, read-out: apparent Kd for the IB-MECA-induced shrinkage) was 55 nM and ~55 nM.
